One assay deals with T1, 5-HT2A (Mus musculus, UniProt P35363).
T1 construct: tissue BioIVT; host or cells: whole C57BL/6 mouse brain minus cerebellum, male and female
Description: Competition binding vs [3H]M100907 in mouse brain membranes. The protocol: (§1) Competition binding studies were conducted in mouse brain tissue as previously described (Glatfelter et al. [2022b]). Briefly, the experiments utilized membranes prepared from whole C57BL/6 mouse brain minus cerebellum (BioIVT, Westbury, NY, USA). […] We assessed the ability of test drugs to compete for [^3H]M100907 binding at 5-HT2A (1 nM) or [^3H]8-OH-DPAT binding at 5-HT1A (0.5 nM). Radioligands were purchased commercially (PerkinElmer, Boston, MA, USA). Nonspecific binding was determined using 10 µM ketanserin for 5-HT2A and serotonin for 5-HT1A. All data represent 3 experiments performed in triplicate.
(§2) Concentration-response data were fit to a single site non-linear regression model. For the HTR studies, potencies were determined from the ascending limb of the dose-response curves using ED50 potency values from [agonist] vs. response (variable slope, four parameter) least squares fit non-linear regression analyses, whereas efficacy was defined by the top output parameter or Emax from the aforementioned analyses. […] Best-fit values for ED50 and Emax from non-linear regression analyses were compared by extra sum-of-squares F tests. Mean effects for each behavioral endpoint were compared using two-way ANOVA (dose x sex), followed by Sidak’s multiple comparisons post-hoc test. Mean effects for pooled mouse behavioral data were compared via Welch’s ANOVA with Dunnett’s T3 post-hoc test, comparing all doses to saline vehicle controls (0 mg/kg). Alpha was set to 0.05 for all analyses.

Assay [1] has as its target T2, 5-HT1A (Mus musculus, UniProt Q64264).
T2 construct: tissue BioIVT; host or cells: whole C57BL/6 mouse brain minus cerebellum, male and female
T2 sequence (Q64264 1-421): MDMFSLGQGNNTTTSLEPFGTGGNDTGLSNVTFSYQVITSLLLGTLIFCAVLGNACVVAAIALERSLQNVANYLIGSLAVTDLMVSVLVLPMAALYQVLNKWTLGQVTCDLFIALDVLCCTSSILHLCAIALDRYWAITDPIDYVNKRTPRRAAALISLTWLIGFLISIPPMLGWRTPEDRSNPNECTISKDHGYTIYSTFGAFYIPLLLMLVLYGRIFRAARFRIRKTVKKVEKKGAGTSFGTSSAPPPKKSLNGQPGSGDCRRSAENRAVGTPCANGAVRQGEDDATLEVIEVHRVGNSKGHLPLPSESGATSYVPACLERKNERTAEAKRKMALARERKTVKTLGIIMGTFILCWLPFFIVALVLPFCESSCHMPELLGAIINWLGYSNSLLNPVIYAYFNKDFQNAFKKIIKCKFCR
Description: Competition binding vs [3H]8-OH-DPAT in mouse brain membranes. As to the method:
as §1, §2

Assay [2] concerns the target T2, 5-HT1A. The note with it: previously determined, used to calculate Ki; read-out: Kd of radioligand at 5-HT1A; cited from earlier work.

pKd, pKi: −log10 of the molar value.

T1 sequence (P35363 whole entry): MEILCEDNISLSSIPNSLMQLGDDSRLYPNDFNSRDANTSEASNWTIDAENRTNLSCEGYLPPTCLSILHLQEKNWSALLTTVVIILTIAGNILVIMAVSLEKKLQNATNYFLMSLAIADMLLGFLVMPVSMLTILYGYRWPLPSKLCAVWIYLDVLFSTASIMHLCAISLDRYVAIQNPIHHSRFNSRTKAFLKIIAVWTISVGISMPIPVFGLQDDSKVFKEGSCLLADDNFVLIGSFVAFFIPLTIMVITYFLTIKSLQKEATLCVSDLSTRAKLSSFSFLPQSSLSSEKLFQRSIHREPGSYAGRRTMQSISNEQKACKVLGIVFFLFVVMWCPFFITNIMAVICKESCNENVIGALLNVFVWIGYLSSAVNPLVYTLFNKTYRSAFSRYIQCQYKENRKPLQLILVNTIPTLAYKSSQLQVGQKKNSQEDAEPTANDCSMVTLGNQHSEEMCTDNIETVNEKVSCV

The term pKi denotes the Ki on a negative log10 scale, so that one unit is a factor of ten. On to `CN(C)CCc1c[nH]c2cccc(O)c12` [Psilocin], for which the pKi is 7.00 to 9.00 at 5-HT2A (5-HT2A binding affinity (Ki), males and females, male and female mouse brain membranes, summary statement); 6.95 on 5-HT2A ([3H]M100907 Binding ♀ m5-HT2A Ki, female mouse brain membranes); 6.96 at 5-HT2A ([3H]M100907 Binding ♂ m5-HT2A Ki, male mouse brain membranes); 7.00 to 9.00 on 5-HT1A [1] (5-HT1A binding affinity (Ki), males and females, male and female mouse brain membranes, summary statement); 7.00 at 5-HT1A [1] ([3H]8-OH-DPAT Binding ♀ m5-HT1A Ki, female mouse brain membranes); 6.95 at 5-HT1A [1] ([3H]8-OH-DPAT Binding ♂ m5-HT1A Ki, male mouse brain membranes).

As a reminder, the pKd is the Kd on a negative log10 scale, so that one unit is a factor of ten. For the molecule `CCCN(CCC)C1CCc2cccc(O)c2C1` (stereo not shown) [[^3H]8-OH-DPAT], on 5-HT1A [2], the pKd was 8.99.

The values above are taken from paper PMC12449377, “Psychedelic-like effects induced by 2,5-dimethoxy-4-iodoamphetamine, lysergic acid diethylamide, and psilocybin in male and female C57BL/6J mice” (Psychopharmacology, 2025).
